Consider one substance from paper PMC5402304, “Oxoaporphine Metal Complexes (Co^II, Ni^II, Zn^II) with High Antitumor Activity by Inducing Mitochondria-Mediated Apoptosis and S-phase Arrest in HepG2” (Scientific Reports, 2017).

One assay deals with SK-OV-3/DDP. The assay can be described thus: MTT cytotoxicity assay, SK-OV-3/DDP. It is filed as cell-based, human. The conditions noted are these: 48 h. As for the experimental part:
The in vitro cytotoxicity of OD, 1–3 and the corresponding metal salts were determined by MTT assay towards a panel of human tumor cells including HepG2, T-24, BEL-7404, MGC80-3, SK-OV-3/DDP and normal HL-7702 cells. As the positive control, cisplatin was dissolved at a concentration of 1 mM in 0.154 M NaCl[32].
The human tumor cell lines (BEL-7404, HepG2, MGC80–3, T-24, SK-OV-3/DDP and HeLa cells) and the human normal liver cell line HL-7702 were obtained from Shanghai Cell Bank in Chinese Academy of Sciences. Cells were cultured in Dulbecco’s modified Eagle’s medium (DMEM) or RPMI-1640 medium, which supplemented with 10% fetal bovine serum (FBS) and 100 U/mL penicillin and streptomycin. Cells were cultured at 37 °C in a humidified atmosphere with 5% CO2/95% air. Tested compounds (2.0 mM) were prepared as DMSO stock solution before they were diluted to working concentrations by PBS buffer (containing 0.5% DMSO), while cisplatin dissolved in 0.9% sodium chloride solution was used as positive controls.
Cells in their logarithmic phase were seeded in 96-well plates with 5.5 × 10^3/180 μL per well for 24 h. Then 20 μL of compounds at various concentrations were added to each well to achieve final concentrations of 1.25, 2.5, 5.0, 10.0, and 20.0 μM. All the cells were incubated with test compounds for another 48 h before MTT assay. Control wells contained media with 0.5% DMSO. After 48 h of cultivation, 10 μL of MTT (5 mg/mL in PBS) was added to each well, and cells were incubated at 37 °C for 6 h. The contents in the wells were pipetted out carefully, and the formazan crystals formed were dissolved in 100 μL of DMSO, and the absorbance was measured by enzyme labeling instrument with 490 nm/630 nm double wavelength measurement. The IC50 value was defined as a drug concentration killing 50% cells in comparison with untreated controls, which was calculated by the Bliss method (n = 5). All tests were repeated in at least three independent trials.

The next assay has as its system HepG2. Nature of the assay: Cell apoptosis assay by flow cytometry, Annexin V-FITC/PI. The conditions noted are these: HepG2, 5.0 μM, 24 h. It is filed as cell-based, human. As for the experimental part: The quantitative analysis of apoptotic HepG2 induced by 1–3 (1.0, 2.0 and 5.0 μM) and their corresponding metal salts (5.0 μM) after 24 h treatment, were investigated by flow cytometry and Annexin V-FITC/PI double staining. As depicted in Figs 7 and S6, 1–3 caused a significant increase in apoptotic cells comparing to the untreated cells.
Cell cycle progression and apoptosis were determined by flow cytometric analysis. (a) Cell cycle arrest assay: HepG2 cells in their logarithmic phase were plated into 50 mL plates at a final density of 5−6 × 10^6 cells/well overnight, then they were treated with various doses (0.25, 0.5 and 1.0 μM) of 1–3 for another 24 h. Cells were trypsinized, collected, and fixed in ice-cold 75% ethanol at −20 °C overnight. After centrifugation, the fixed cells were rinsed with ice-cold phosphate buffered saline (PBS), and resuspended in 0.5 mL of PBS containing 100 μg/mL RNase, 50 μg/mL propidium iodide (PI) in the dark for 5−10 min. The cell cycle distribution was analyzed by FACS Calibur flow cytometer (BD) and calculated using ModFIT LT software. (b) Apoptosis assay: 1 × 10^5 HepG2 cells were plated in 6-well plates, after incubation for 24 h with complexes 1–3 at 1.0, 2.0 and 5.0 μM, cells were collected, and Apoptosis Detection kit FITC Annexin V was used to analyze the cell apoptosis according to the manufacturer’s instructions.

As for [Zn(OD)2(H2O)2] (ClO4)2 [Complex 3], the IC50 with SK-OV-3/DDP (SK-OV-3/DDP, MTT) worked out at 570 ± 70 nM. The inhibitive ratio with SK-OV-3/DDP (SKOV-3/DDP, 20 μmol/L) was found to be 70.80±1.69%. In the assay on HepG2, the “population of apoptotic cells” value amounted to 25.3%.
